# Experimental data reported in patent US20250108036A1, “COMPOSITIONS FOR REMOVING SENESCENT CELLS AND USES THEREOF” (LIFECEUTIX CO., LTD., priority 2021, published 2025).
# Legend:
# Type in all cases: cell-based, human
# HMGN1 [1] = assay: HMGN1 ELISA in culture medium of A549 cancer cells (Example 12, Table 66); settings: Homo sapiens, A549, doxorubicin-induced senescent A549 cells, ELISA, DMSO = 100, read-out: HMGN1 (amount of HMGN1 secreted in the cell culture); for activity at 270 µM: test compound 270 μM; for activity at 30 µM: test compound 30 μM
# A549 = assay: CellTiter-Glo cell viability of senescent A549 cancer cells (Example 12, Table 67); settings: Homo sapiens, A549, doxorubicin-induced senescent A549 cancer cells, CellTiter-Glo, read-out: Survival (%); for viability at 1.1 µM: 1.1 μM test compound; for viability at 10 µM: 10 μM test compound; for viability at 30 µM: 30 μM test compound; for viability at 90 µM: 90 μM test compound; for viability at 270 µM: 270 μM test compound
# HMGN1 [2] = assay: HMGN1 ELISA in culture medium of foreskin cells (Examples 10, 11; Tables 62, 63, 64); settings: Homo sapiens, doxorubicin-treated foreskin cells, DMSO = 100; for activity at 30 µM: 30 μM test compound, read-out: HMGN1
# [3] = tested on: foreskin cells in which senescence was induced by doxorubicin; assay: CellTiter-Glo cell viability of doxorubicin-induced senescent foreskin cells (Examples 1-2, 10, 11, 13; Tables 4, 63, 65); settings: Homo sapiens, 72 h, doxorubicin-induced senescent foreskin cells, CellTiter-Glo, 0 μM = 100, read-out: Survival (%); for viability at 1.1 µM: 1.1 μM test compound; for viability at 10 µM: 10 μM test compound; for viability at 30 µM: 30 μM test compound; for viability at 90 µM: 90 μM test compound; for viability at […]: […] test compound
# Procedure: After 3 days, cell viability was measured using CellTiter-Glo Luminescent Cell Viability Assay (Promega) or light microscopy.
SMILES,activity at 270 µM (HMGN1 [1]),viability at 1.1 µM (A549),viability at 10 µM (A549),viability at 30 µM (A549),viability at 90 µM (A549),viability at 270 µM (A549),activity at 90 µM (HMGN1 [2]; 90 μM test compound),viability at 1.1 µM [3],viability at 10 µM [3],viability at 30 µM [3],viability at 90 µM [3],viability at […] [3],activity at 270 µM (HMGN1 [2]; 270 μM test compound),viability at 270 µM ([3]; 270 μM test compound),activity at 30 µM (HMGN1 [1]),activity at 30 µM (HMGN1 [2])
"C=C(C)[C@@H]1CC[C@]2(C(=O)O)CC[C@]3(C)[C@H](CC[C@@H]4[C@@]5(C)CC[C@H](O)C(C)(C)[C@@H]5CC[C@]43C)[C@@H]12 [LX-2005, Betulinic acid]",252%,102%,95.7%,82.9%,57.2%,5.3%,212%,97.5%,87.2%,73.8%,31.5%,93.3%,–,–,–,–
"CC1(C)C=C2[C@H]3CC[C@@H]4[C@@]5(C)CCC(=O)C(C)(C)[C@@H]5CC[C@@]4(C)[C@]3(C)CC[C@@]2(C(=O)O)CC1 [LX-2007, Moronic acid]",192%,111%,96.3%,87.9%,62.8%,32.4%,–,105%,91.2%,83.9%,47.2%,98.9%,255%,1.3%,–,–
"COC(=O)[C@]12CCC(C)(C)C[C@H]1[C@H]1C(=O)C=C3[C@@]4(C)C=C(C#N)C(=O)C(C)(C)[C@@H]4CC[C@@]3(C)[C@]1(C)CC2 [LX-2102, Bardoxolone methyl, reference compound]",–,88.4%,–,–,–,–,–,9.4%,–,–,–,–,–,–,233%,288%
C[C@@H]1C(=O)C(C#N)=C[C@]2(C)C3=CC(=O)[C@@H]4[C@@H]5CC(C)(C)CC[C@]5(NC(=O)C(C)(F)F)CC[C@@]4(C)[C@]3(C)CC[C@@H]12 [LX-2201],–,28.4%,–,–,–,–,–,9.8%,–,–,–,–,–,–,326%,318%
COC(=O)[C@]12CCC(C)(C)C[C@H]1[C@H]1C(=O)C[C@@H]3[C@@]4(C)C=C(C#N)C(=O)C(C)(C)[C@@H]4CC[C@@]3(C)[C@]1(C)CC2 [LX-2301],–,21.5%,–,–,–,–,–,2.6%,–,–,–,–,–,–,274%,283%
"CC1(C)CC[C@]2(C(=O)NCC(F)(F)F)CC[C@]3(C)[C@H](C(=O)C[C@@H]4[C@@]5(C)C=C(C#N)C(=O)C(C)(C)[C@@H]5CC[C@]43C)[C@@H]2C1 [LX-2302, Dihydro-CDDO-Trifluoroethyl Amide]",–,95.9%,5.4%,–,–,–,–,48.9%,–,–,–,6.3%,–,–,313%,279%
COC(=O)N[C@]12CCC(C)(C)C[C@H]1[C@H]1C(=O)C=C3[C@@]4(C)C=C(C#N)C(=O)C(C)(C)[C@@H]4CC[C@@]3(C)[C@]1(C)CC2 [LX-2305],–,33.6%,–,–,–,–,–,19.6%,–,–,–,–,–,–,269%,292%
CC1(C)CC[C@]2(NS(C)(=O)=O)CC[C@]3(C)[C@H](C(=O)C=C4[C@@]5(C)C=C(C#N)C(=O)C(C)(C)[C@@H]5CC[C@]43C)[C@@H]2C1 [LX-2306],–,102%,11.5%,–,–,–,–,29.8%,–,–,–,7.1%,–,–,296%,301%
COC(=O)C[C@]12CCC(C)(C)C[C@H]1[C@H]1C(=O)C=C3[C@@]4(C)C=C(C#N)C(=O)C(C)(C)[C@@H]4CC[C@@]3(C)[C@]1(C)CC2 [LX-2307],–,4.8%,–,–,–,–,–,15.4%,–,–,–,–,–,–,279%,271%
C[C@]12C=C(C#N)C(=O)C3(CC=CC3)C1=CC[C@@H]1[C@@H]2CC[C@]2(C)C(=O)CC[C@@H]12 [LX-2308],–,96.6%,23.5%,–,–,–,–,49.6%,–,–,–,5.9%,–,–,287%,329%
CC1(C)CC[C@]2(C(=O)NO)CC[C@]3(C)[C@H](C(=O)C=C4[C@@]5(C)C=C(C#N)C(=O)C(C)(C)[C@@H]5CC[C@]43C)[C@@H]2C1 [LX-2309],–,112%,14.9%,–,–,–,–,69.7%,–,–,–,2.7%,–,–,322%,307%
CONC(=O)[C@]12CCC(C)(C)C[C@H]1[C@H]1C(=O)C=C3[C@@]4(C)C=C(C#N)C(=O)C(C)(C)[C@@H]4CC[C@@]3(C)[C@]1(C)CC2 [LX-2310],–,100%,3.5%,–,–,–,–,53.7%,–,–,–,6.9%,–,–,319%,315%
C=C(C)[C@@H]1CC[C@]2(C(=O)NCC)CC[C@]3(C)[C@H](CCC4[C@@]5(C)C=C(C#N)C(=O)C(C)(C)[C@@H]5CC[C@]43C)[C@@H]12 (stereo partly drawn) [LX-2311],–,97.5%,8.9%,–,–,–,–,39.5%,–,–,–,4.1%,–,–,276%,271%
C[C@@H]1C(=O)C(C#N)=C[C@]2(C)c3nn(C)c(-c4ccccc4)c3CC[C@@H]12 [LX-2312],–,96.3%,7.8%,–,–,–,–,48.6%,–,–,–,5.2%,–,–,339%,293%
COc1nc(-c2cccnc2)nc2c1CC[C@H]1[C@H](C)C(=O)C(C#N)=C[C@]21C [LX-2315],–,98.2%,39.2%,–,–,–,–,75.2%,–,–,–,2.9%,–,–,247%,235%
COC(=O)[C@]12CCC(C)(C)C[C@H]1[C@H]1C(=O)C=C3[C@@]4(C)C=C(C#N)C(=O)[C@@H](C)[C@@H]4CC[C@@]3(C)[C@]1(C)CC2 [LX-2316],–,106%,25.4%,–,–,–,–,36.6%,–,–,–,0.9%,–,–,263%,274%
C[C@@H]1C(=O)C(C#N)=C[C@]2(C)C3=CC(=O)[C@@H]4[C@@H]5CC(C)(C)CC[C@]5(CO)CC[C@@]4(C)[C@]3(C)CC[C@@H]12 [LX-2317],–,93.5%,29.7%,–,–,–,–,48.2%,–,–,–,7.8%,–,–,282%,317%
CC1(C)CC[C@]2(CO)CC[C@]3(C)[C@H](C(=O)C=C4[C@@]5(C)[C@H]6O[C@@]6(C#N)C(=O)C(C)(C)[C@@H]5CC[C@]43C)[C@@H]2C1 [LX-2318],–,94.1%,31.1%,–,–,–,–,78.3%,–,–,–,12.1%,–,–,278%,264%
C[C@@H]1C(=O)[C@]2(C#N)O[C@@H]2[C@]2(C)C3=CC(=O)[C@@H]4[C@@H]5CC(C)(C)CC[C@]5(NC(=O)C(C)(F)F)CC[C@@]4(C)[C@]3(C)CC[C@@H]12 [LX-2319],–,96.5%,21.3%,–,–,–,–,52.9%,–,–,–,21.9%,–,–,310%,241%
Cc1noc([C@]23CCC(C)(C)C[C@H]2[C@H]2C(=O)C=C4[C@@]5(C)C=C(C#N)C(=O)C(C)(C)[C@@H]5CC[C@@]4(C)[C@]2(C)CC3)n1 [LX-2401],–,108%,15.9%,–,–,–,–,46.4%,–,–,–,6.8%,–,–,284%,303%
CCNC(=O)CC[C@]12CCC(C)(C)C[C@H]1[C@H]1C(=O)C=C3[C@@]4(C)C=C(C#N)C(=O)C(C)(C)[C@@H]4CC[C@@]3(C)[C@]1(C)CC2 [LX-2402],–,99.5%,5.4%,–,–,–,–,45.2%,–,–,–,5.1%,–,–,286%,287%
CNC(=O)CC[C@]12CCC(C)(C)C[C@H]1[C@H]1C(=O)C=C3[C@@]4(C)C=C(C#N)C(=O)C(C)(C)[C@@H]4CC[C@@]3(C)[C@]1(C)CC2 [LX-2403],–,100%,3.2%,–,–,–,–,38.1%,–,–,–,15.2%,–,–,267%,319%
